Source: the NIST ThermoML archive (doi:10.1016/j.jct.2015.07.020)
± gives the expanded uncertainty stated by the source.

Assays:
[1] = refractive index (Na D-line) (dimensionless); conditions: 101.33 kPa, Liquid, Standard Abbe refractometry
[2] = 101.33 kPa, Liquid, Vibrating tube method

Structure (SMILES)	refractive index ([1]; 298.15 K)	mass density ([2]; 298.15 K)	refractive index ([1]; 293.15 K)	mass density ([2]; 293.15 K)
CCc1ccccc1 [ethylbenzene]	1.493 ± 0.0005	862.51 ± 0.3 kg/m3		
CC(C)c1ccccc1 [isopropylbenzene]			1.4912 ± 0.0005	863.82 ± 0.3 kg/m3
O [water]	1.3324 ± 0.0005			
